# Source: patent US20120214710A1, “METHOD OF PREDICTING RESPONSE TO THALIDOMIDE IN MULTIPLE MYELOMA PATIENTS” (Dublin City University, priority 2009, published 2012)
# Experiments:
# Multiple Myeloma = assay: Day-100 re-staging (IMWG uniform response criteria) of newly diagnosed MM patients on thalidomide-based regimens; format: in vivo, human
# Protocol: Serum samples from 51 consecutive newly diagnosed MM patients who were having initial treatment with thalidomide-based regimens were analyzed. Samples were obtained at diagnosis and prior to commencement of therapy. The samples were collected according to standard phlebotomy procedures from consented patients. Ethical consent was granted from the Mater Misericordiae University Hospital, Dublin, Ireland ethics committee. 10 ml of blood sample was collected into additive free blood tubes and was allowed to clot for 30 minutes to 1 hour at room temperature. Samples were coded and transported on ice to the laboratory. The serum was denuded by pipette from the clot and place into a clean tube. The tubes were centrifuged at 400 relative centrifugal force (rcf) for 30 minutes at 4° C. Serum was aliquoted in the cryovial tubes, labeled and stored at −80° C. until time of analysis. The time from sample procurement to storage at −80° C. was less than 3 hours. Each serum sample underwent no more than 3 freeze/thaw cycles prior to analysis.
# The mean age of the patient group was 68 SD+/−6.95 years (range 52-81 years); 27 were male and 24 female. Based on Day-100 re-staging investigations and using the International Myeloma Working Group (IMWG) uniform response criteria (Rajkumar S V, Buadi F. Multiple myeloma: new staging systems for diagnosis, prognosis and response evaluation. Best Pract Res Clin Haematol. 2007; 20:665-680; Durie B G, Harousseau J L, Miguel J S, et al. International uniform response criteria for multiple myeloma. Leukemia. 2006;20:1467-1473) for MM, 29 responders and 22 non-responders to thalidomide-based therapy were identified. The mean age was 66 SD+/−6.80 years (range, 52-81 years) for responders and 70 SD+/−6.69 years (range, 57-79 years) for non-responders. Based on the ISS classification (Hotta T. [Classification, staging and prognostic indices for multiple myeloma]. Nippon Rinsho. 2007; 65:2161-2166), 6 responding patients had stage I, 15 had stage II and 8 had stage III disease. […] had stage I, 11 had stage II and 9 had stage III disease. In the responders group, 24 patients were treated with thalidomide and dexamethasone (TD), 3 with thalidomide, cyclophosphamide and dexamethasone (CTD) and 2 with melphalan, prednisone and thalidomide (MPT). In the non-responder group, 17 patients received TD, 4 received CTD and 1 patient received MPT. Median follow-up was 13 months (range, 6-21 months). In the responder group, 9 patients achieved complete response (CR) and 20 achieved very good partial response (VGPR). Five non-responders had Stable disease (SD) and the remaining 17 had Progressive disease (PD) (Table I).
# [1] = use in myeloma; cited from earlier work
# [2] = 51 newly diagnosed MM patients, Day-100 re-staging, IMWG criteria
smiles,measurement,setting,value
"O=C1CCC(N2C(=O)c3ccccc3C2=O)C(=O)N1 (stereo not drawn) [thalidomide, 2-(2,6-dioxopiperidin-3-yl)-1H-isoindole-1,3(2H)-dione]",number of non-responders (SD or PD),Multiple Myeloma; [2],22 patients
same,number of responders (CR or VGPR),Multiple Myeloma; [2],29 patients
same,patients with Progressive disease (PD),"Multiple Myeloma; non-responder group, n=22",17 patients
same,patients achieving complete response (CR),"Multiple Myeloma; responder group, n=29",9 patients
same,patients achieving very good partial response (VGPR),"Multiple Myeloma; responder group, n=29",20 patients
same,serious side effects,[1],thrombo-embolic disease and peripheral neuropathy
